In ChEMBL document CHEMBL1136501 (Bioorg Med Chem Lett, 2003):

Experiments:
[1] = biological target: T1, Sodium-dependent noradrenaline transporter (Homo sapiens, UniProt P23975)
Description: Inhibition of [3H]nisoxetine binding to norepinephrine (NE) transporter

[2] = biological target: T2, Sodium-dependent serotonin transporter (Homo sapiens, UniProt P31645)
Target sequence in this assay (P31645 whole entry): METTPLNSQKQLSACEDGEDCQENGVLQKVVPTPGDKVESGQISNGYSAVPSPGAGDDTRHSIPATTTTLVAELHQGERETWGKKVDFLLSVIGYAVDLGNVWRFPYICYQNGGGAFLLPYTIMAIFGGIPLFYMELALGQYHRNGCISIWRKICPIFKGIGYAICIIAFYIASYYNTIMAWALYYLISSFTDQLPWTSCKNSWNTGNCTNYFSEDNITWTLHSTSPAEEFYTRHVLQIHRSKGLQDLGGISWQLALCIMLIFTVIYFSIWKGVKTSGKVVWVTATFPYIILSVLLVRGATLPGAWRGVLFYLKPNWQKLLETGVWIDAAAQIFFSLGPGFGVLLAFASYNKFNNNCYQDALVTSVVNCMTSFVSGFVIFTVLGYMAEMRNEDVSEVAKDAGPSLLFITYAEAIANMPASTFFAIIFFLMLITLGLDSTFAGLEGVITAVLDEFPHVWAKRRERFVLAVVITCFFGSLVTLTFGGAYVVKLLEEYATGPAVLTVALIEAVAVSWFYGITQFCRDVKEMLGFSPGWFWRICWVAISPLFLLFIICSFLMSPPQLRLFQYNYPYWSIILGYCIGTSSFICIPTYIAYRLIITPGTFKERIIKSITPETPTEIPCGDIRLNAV
Description: Binding affinity to serotonin transporter, using [3H]citalopram as radioligand

Rattus norvegicus [3] = species: Rattus norvegicus
Description: Inhibition of dopamine uptake into rat synaptosomes

Rattus norvegicus [4] = species: Rattus norvegicus; remark: listed apart in the source
Description: Inhibition of norepinephrine uptake into rat synaptosomes

Rattus norvegicus [5] = species: Rattus norvegicus; remark: listed apart in the source
Description: Inhibition of serotonin uptake into rat synaptosomes

[6] = biological target: T1, Sodium-dependent noradrenaline transporter; assay: Inhibition of [3H]nisoxetine binding to norepinephrine transporter; conditions: concentration not given here
[7] = biological target: T2, Sodium-dependent serotonin transporter; assay: Binding affinity at serotonin transporter, using [3H]citalopram as radioligand at a concentration of 0.1 uM
Target sequence in this assay (P31645 whole entry, looked up): as the sequence (P31645 whole entry) above

T1 sequence (P23975 whole entry): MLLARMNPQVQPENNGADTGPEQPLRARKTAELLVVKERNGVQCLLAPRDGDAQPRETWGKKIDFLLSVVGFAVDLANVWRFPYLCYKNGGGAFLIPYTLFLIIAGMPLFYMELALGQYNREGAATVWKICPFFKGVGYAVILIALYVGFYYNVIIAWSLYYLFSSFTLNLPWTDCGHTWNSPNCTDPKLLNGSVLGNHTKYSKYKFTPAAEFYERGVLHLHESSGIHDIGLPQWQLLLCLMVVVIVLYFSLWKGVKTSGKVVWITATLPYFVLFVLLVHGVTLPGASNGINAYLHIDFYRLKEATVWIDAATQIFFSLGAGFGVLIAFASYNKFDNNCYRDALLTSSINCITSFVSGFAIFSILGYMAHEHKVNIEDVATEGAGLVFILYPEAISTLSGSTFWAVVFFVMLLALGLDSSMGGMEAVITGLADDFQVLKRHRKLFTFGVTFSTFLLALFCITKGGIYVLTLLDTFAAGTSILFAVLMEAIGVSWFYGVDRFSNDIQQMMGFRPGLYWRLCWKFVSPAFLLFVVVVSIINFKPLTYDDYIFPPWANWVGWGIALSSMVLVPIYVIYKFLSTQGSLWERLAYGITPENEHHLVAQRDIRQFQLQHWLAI

| Ki [1] [nM] | Ki [2] [nM] | inhibition [6] [%] | SMILES | other results |
| --- | --- | --- | --- | --- |
| 20 | 2.4 |  | CNCCC(Oc1cccc2ccccc12)c1ccccc1 (centres undefined) |  |
| 110 | 2 |  | CNCCC(Oc1cccc2ccccc12)c1ccccc1C (centres undefined) |  |
| 55 | 6.4 |  | CNCCC(Oc1cccc2ccccc12)c1nccs1 (centres undefined) |  |
|  | 10 | 38 | CNCCC(Oc1cccc2ccccc12)c1ccccc1C(F)(F)F (centres undefined) |  |
| 40 | 4 |  | CNCCC(Oc1cccc2ccccc12)c1cccc(C)c1 (centres undefined) |  |
| 160 | 4.1 |  | CNCCC(Oc1cccc2ccccc12)c1ccc(Br)cc1 (centres undefined) |  |
|  |  | 39 | CNCCCOc1ccc2ccccc2c1 | inhibition [7]: 23% |
|  |  | 23 | CNCCCCCOc1cccc2ccccc12 | inhibition [7]: 35.5% |
| 36 | 2.1 |  | CNCCC(Oc1cccc2ccccc12)c1ccc(C)cc1 (centres undefined) |  |
|  | 14.5 | 55 | CNCCC(Oc1cccc2ccccc12)c1ccc(C(F)(F)F)cc1 (centres undefined) |  |
| 70 | 19 |  | CNCCC(Oc1cccc2ccccc12)c1cccc(C(F)(F)F)c1 (centres undefined) |  |

Second part, the compound before the results:

| SMILES | Ki [1] [nM] | Ki [2] [nM] | inhibition [6] [%] | other results |
| --- | --- | --- | --- | --- |
| CNCCC(Oc1cccc2ccccc12)c1ccc(OC)cc1 (centres undefined) | 74 | 3.5 |  |  |
| CNCC[C@@H](Oc1ccccc1C)c1ccccc1 [ATOMOXETINE] |  |  |  | Ki (Rattus norvegicus [3]): 2000 nM; Ki (Rattus norvegicus [4]): 4 nM; Ki (Rattus norvegicus [5]): 1500 nM |
| CNCCCCOc1ccc2ccccc2c1 |  |  | 17 | inhibition [7]: 32% |
| CNCCC(Oc1cccc2ccccc12)c1ccc(F)cc1 (centres undefined) | 42 | 0.95 |  |  |
| CNCCOc1cccc2ccccc12 |  |  | 17 | inhibition [7]: 2% |
| CNCCC(Oc1cccc2ccccc12)c1ccc(Cl)cc1 (centres undefined) | 78 | 3.8 |  |  |
| CNCCC(Oc1cccc2ccccc12)c1ccccc1OC (centres undefined) |  | 2.3 | 56 |  |
| CNCCCCOc1cccc2ccccc12 |  | 31 | 25.5 |  |
| CNCCCOc1cccc2ccccc12 |  | 75 | 25 |  |
| CNCCC(Oc1cccc2ccccc12)c1ccco1 (centres undefined) | 20 | 0.7 |  |  |
| CNCCC(Oc1cccc2ccccc12)c1cccc(OC)c1 (centres undefined) | 81 | 2.2 |  |  |
| CNCCC(Oc1cccc2ccccc12)c1cccc(Br)c1 (centres undefined) | 67 | 7.6 |  |  |
| CNCCC(Oc1cccc2ccccc12)c1ccsc1 (centres undefined) | 21 | 1.1 |  |  |
